{"source": "patent US6518401B2", "about": "“Tumor necrosis factor stimulated gene 6 (TSG-6) protein” (New York University, priority 1991, dated 2003)", "test_in_all_cases": "Northern blot analysis of TSG mRNA levels in FS-4 cells", "format_in_all_cases": "cell-based, human", "key": {"TSG-14 mRNA": {"tested_on": "TSG-14 mRNA", "conditions": "growth arrested FS-4 cells, 2 h; TNF 20 ng/ml, CHX 10 ug/ml, IFN-β 500 U/ml, IFN-γ 100 U/ml, IL-1-α 1 ng/ml, EGF 25 ng/ml, TGF-β 2 ng/ml, poly(I).poly(C) 50 ug/ml, TPA 100 ng/ml, A23187 1 uM, forskolin 10 uM, dBcAMP 100 uM, IBMX 100 uM", "method": "(§1) The human diploid FS-4 foreskin fibroblast cell line (Vilcek, J. et al, Proc. Natl. Acad. Sci. USA 70:3909-3913 (1973)) was used at passage level 15 in all experiments. FS-4 cells were grown in Eagle minimal essential medium (E-MEM) supplemented with 6 mM HEPES, 3 mM Tricine, 50 μg/ml gentamicin, and 5% heat inactivated (56° C., 30 min) fetal bovine serum (FBS; GIBCO Laboratories, Grand Island, N.Y.). For experiments, 4×10^6 cells were seeded in 175 cm^2 Falcon flasks, incubated at 37° C., and allowed to grow to confluence over 6 days. The confluent monolayers were washed once with phosphate buffered saline and replenished with E-MEM containing […] FBS. The cultures were incubated in this medium for another 72 h at 37° C. to let the cells become quiescent and then treated with the appropriate agents, as specified herein.\n(§2) Cytoplasmic RNA was fractionated on a 1% agarose gel containing formaldehyde and blotted onto Zeta-probe blotting membranes (Bio-Rad Laboratories, Richmond, Calif.). Cytoplasmic RNA was loaded at 10 μg/lane. Prehybridization and hybridization of Northern blots were performed as described (Lin, J.-X. et al, supra). Filters were probed with 32P-labeled cDNA insert from recombinant M13 clones and/or with 32P-labeled internal reference pHe7 insert. Northern blots were quantified with a laser densitometer.\n(§3) The increase in mRNA levels ranged from about 3-fold (TSG-21) to over 100-fold (TSG-6 and TSG-8).\n(§4) Table 3 provides a summary of a large number of experiments in which levels of mRNAs corresponding to the 8 distinct TSG cDNAs were determined in FS-4 cells exposed to various agents by Northern blot analysis. Three of the mRNAs (corresponding to TSG-8, TSG-12 and TSG-14) were inducible by the protein synthesis inhibitor, cycloheximide (CHX). […] In contrast, induction of the remaining 3 mRNAs by TNF was inhibited or reduced in the presence of CHX. Five of the mRNAs were inducible by IFN-β, but only two of these responded to […]. Simultaneous treatment with IFN-β reduced inducibility of TSG-1 (=IL-8) mRNA by TNF, but increased the inducibility of TSG-6 and TSG-37 mRNAs. All mRNAs were inducible by IL-1 and by the doublestranded RNA poly(I)-poly(C) or the phorbol ester 12-O-tetradecanoyl phorbol 13-acetate (TPA), but the efficiency of induction by these agents varied. Epidermal growth factor (EGF) was moderately efficient in increasing TSG-21 (=collagenase) and TSG-27 (=stromelysin) mRNA levels, and weakly stimulated several other mRNAs. PDGF and transforming growth factor-β (TGF-β) were only weakly effective, as were dibutyryl cyclic AMP (dBcAMP) and the phosphodiesterase inhibitor, isobutyl methyl xanthine (IBMX)."}, "TSG-12 mRNA": {"tested_on": "TSG-12 mRNA", "conditions": "growth arrested FS-4 cells, 2 h; TNF 20 ng/ml, CHX 10 ug/ml, IFN-β 500 U/ml, IFN-γ 100 U/ml, IL-1-α 1 ng/ml, EGF 25 ng/ml, TGF-β 2 ng/ml, poly(I).poly(C) 50 ug/ml, TPA 100 ng/ml, A23187 1 uM, forskolin 10 uM, dBcAMP 100 uM, IBMX 100 uM", "method": "as §1, §2, §3, §4"}, "TSG-37 (MT-II) mRNA": {"tested_on": "TSG-37 (MT-II) mRNA", "conditions": "growth arrested FS-4 cells, 2 h; TNF 20 ng/ml, CHX 10 ug/ml, IFN-β 500 U/ml, IFN-γ 100 U/ml, IL-1-α 1 ng/ml, EGF 25 ng/ml, TGF-β 2 ng/ml, poly(I).poly(C) 50 ug/ml, TPA 100 ng/ml, A23187 1 uM, forskolin 10 uM, dBcAMP 100 uM, IBMX 100 uM", "method": "as §1, §2, §3, §4"}, "TSG-1 (IL-8) mRNA": {"tested_on": "TSG-1 (IL-8) mRNA", "conditions": "growth arrested FS-4 cells, 2 h; TNF 20 ng/ml, CHX 10 ug/ml, IFN-β 500 U/ml, IFN-γ 100 U/ml, IL-1-α 1 ng/ml, EGF 25 ng/ml, TGF-β 2 ng/ml, poly(I).poly(C) 50 ug/ml, TPA 100 ng/ml, A23187 1 uM, forskolin 10 uM, dBcAMP 100 uM, IBMX 100 uM", "method": "as §1, §2, §3, §4"}, "TSG-6 mRNA": {"tested_on": "TSG-6 mRNA", "conditions": "growth arrested FS-4 cells, 2 h; TNF 20 ng/ml, CHX 10 ug/ml, IFN-β 500 U/ml, IFN-γ 100 U/ml, IL-1-α 1 ng/ml, EGF 25 ng/ml, TGF-β 2 ng/ml, poly(I).poly(C) 50 ug/ml, TPA 100 ng/ml, A23187 1 uM, forskolin 10 uM, dBcAMP 100 uM, IBMX 100 uM", "method": "as §1, §2, §3, §4"}, "TSG-8 (MCAF) mRNA": {"tested_on": "TSG-8 (MCAF) mRNA", "conditions": "growth arrested FS-4 cells, 2 h; TNF 20 ng/ml, CHX 10 ug/ml, IFN-β 500 U/ml, IFN-γ 100 U/ml, IL-1-α 1 ng/ml, EGF 25 ng/ml, TGF-β 2 ng/ml, poly(I).poly(C) 50 ug/ml, TPA 100 ng/ml, A23187 1 uM, forskolin 10 uM, dBcAMP 100 uM, IBMX 100 uM", "method": "as §1, §2, §3, §4"}, "[1]": {"tested_on": "TSG-27 (Stromelysin) mRNA", "conditions": "growth arrested FS-4 cells, 16 h of treatment; TNF 20 ng/ml, CHX 10 ug/ml, IFN-β 500 U/ml, IFN-γ 100 U/ml, IL-1-α 1 ng/ml, EGF 25 ng/ml, TGF-β 2 ng/ml, poly(I).poly(C) 50 ug/ml, TPA 100 ng/ml, forskolin 10 uM, IBMX 100 uM", "method": "as §1, §2, §3, §4"}, "[2]": {"tested_on": "TSG-21 (Collagenase) mRNA", "conditions": "growth arrested FS-4 cells, 16 h of treatment; TNF 20 ng/ml, CHX 10 ug/ml, IFN-β 500 U/ml, IFN-γ 100 U/ml, IL-1-α 1 ng/ml, EGF 25 ng/ml, TGF-β 2 ng/ml, poly(I).poly(C) 50 ug/ml, TPA 100 ng/ml, forskolin 10 uM, IBMX 100 uM", "method": "as §1, §2, §3, §4"}}, "data": [{"compound": "CNc1ccc2oc(C[C@H]3O[C@@]4(CC[C@H]3C)O[C@H]([C@H](C)C(=O)c3ccc[nH]3)[C@H](C)C[C@H]4C)nc2c1C(=O)O", "note": "[A23187]", "values": [{"measurement": "Relative Increase in mRNA Level TSG-14", "setting": "TSG-14 mRNA", "value": 0}, {"measurement": "Relative Increase in mRNA Level TSG-12", "setting": "TSG-12 mRNA", "value": "++"}, {"measurement": "Relative Increase in mRNA Level TSG-37 (MT-II)", "setting": "TSG-37 (MT-II) mRNA", "value": 0}, {"measurement": "Relative Increase in mRNA Level TSG-1 (IL-8)", "setting": "TSG-1 (IL-8) mRNA", "value": "+"}, {"measurement": "Relative Increase in mRNA Level TSG-6", "setting": "TSG-6 mRNA", "value": "+"}, {"measurement": "Relative Increase in mRNA Level TSG-8 (MCAF)", "setting": "TSG-8 (MCAF) mRNA", "value": "++"}]}, {"compound": "C[C@@H]1C[C@@H]([C@H](O)CC2CC(=O)NC(=O)C2)C(=O)[C@@H](C)C1", "note": "[CHX, cycloheximide]", "values": [{"measurement": "Relative Increase in mRNA Level TSG-14", "setting": "TSG-14 mRNA", "value": "+"}, {"measurement": "Relative Increase in mRNA Level TSG-27 (Stromelysin)", "setting": "[1]", "value": 0}, {"measurement": "Relative Increase in mRNA Level TSG-21 (Collagenase)", "setting": "[2]", "value": 0}, {"measurement": "Relative Increase in mRNA Level TSG-12", "setting": "TSG-12 mRNA", "value": "+++"}, {"measurement": "Relative Increase in mRNA Level TSG-37 (MT-II)", "setting": "TSG-37 (MT-II) mRNA", "value": 0}, {"measurement": "Relative Increase in mRNA Level TSG-1 (IL-8)", "setting": "TSG-1 (IL-8) mRNA", "value": 0}, {"measurement": "Relative Increase in mRNA Level TSG-6", "setting": "TSG-6 mRNA", "value": 0}, {"measurement": "Relative Increase in mRNA Level TSG-8 (MCAF)", "setting": "TSG-8 (MCAF) mRNA", "value": "+"}]}, {"compound": "C=C[C@@]1(C)CC(=O)[C@]2(O)[C@@]3(C)[C@@H](O)CCC(C)(C)[C@@H]3[C@H](O)[C@H](OC(C)=O)[C@@]2(C)O1", "note": "[Forskolin, forskolin]", "values": [{"measurement": "Relative Increase in mRNA Level TSG-14", "setting": "TSG-14 mRNA", "value": 0}, {"measurement": "Relative Increase in mRNA Level TSG-27 (Stromelysin)", "setting": "[1]", "value": 0}, {"measurement": "Relative Increase in mRNA Level TSG-21 (Collagenase)", "setting": "[2]", "value": 0}, {"measurement": "Relative Increase in mRNA Level TSG-12", "setting": "TSG-12 mRNA", "value": 0}, {"measurement": "Relative Increase in mRNA Level TSG-37 (MT-II)", "setting": "TSG-37 (MT-II) mRNA", "value": 0}, {"measurement": "Relative Increase in mRNA Level TSG-1 (IL-8)", "setting": "TSG-1 (IL-8) mRNA", "value": 0}, {"measurement": "Relative Increase in mRNA Level TSG-8 (MCAF)", "setting": "TSG-8 (MCAF) mRNA", "value": 0}]}, {"compound": "CCCCCCCCCCCCCC(=O)O[C@@H]1[C@@H](C)[C@@]2(O)[C@@H](C=C(CO)C[C@]3(O)C(=O)C(C)=C[C@@H]23)[C@@H]2C(C)(C)[C@]12OC(C)=O", "note": "[TPA, 12-O-tetradecanoylphorbol 13-acetate]", "values": [{"measurement": "Relative Increase in mRNA Level TSG-14", "setting": "TSG-14 mRNA", "value": "+"}, {"measurement": "Relative Increase in mRNA Level TSG-27 (Stromelysin)", "setting": "[1]", "value": "++++"}, {"measurement": "Relative Increase in mRNA Level TSG-21 (Collagenase)", "setting": "[2]", "value": "++++"}, {"measurement": "Relative Increase in mRNA Level TSG-12", "setting": "TSG-12 mRNA", "value": "++"}, {"measurement": "Relative Increase in mRNA Level TSG-37 (MT-II)", "setting": "TSG-37 (MT-II) mRNA", "value": "+"}, {"measurement": "Relative Increase in mRNA Level TSG-1 (IL-8)", "setting": "TSG-1 (IL-8) mRNA", "value": "+"}, {"measurement": "Relative Increase in mRNA Level TSG-6", "setting": "TSG-6 mRNA", "value": "+"}, {"measurement": "Relative Increase in mRNA Level TSG-8 (MCAF)", "setting": "TSG-8 (MCAF) mRNA", "value": "++"}]}, {"compound": "CCCC(=O)Nc1ncnc2c1ncn2[C@@H]1O[C@@H]2COP(=O)(O)O[C@H]2[C@H]1OC(=O)CCC", "note": "[dBcAMP, N^6-2′-O-dibutyl adenosine cyclic 3′,5′-monophosphate]", "values": [{"measurement": "Relative Increase in mRNA Level TSG-14", "setting": "TSG-14 mRNA", "value": 0}, {"measurement": "Relative Increase in mRNA Level TSG-12", "setting": "TSG-12 mRNA", "value": "+"}, {"measurement": "Relative Increase in mRNA Level TSG-1 (IL-8)", "setting": "TSG-1 (IL-8) mRNA", "value": 0}, {"measurement": "Relative Increase in mRNA Level TSG-6", "setting": "TSG-6 mRNA", "value": 0}, {"measurement": "Relative Increase in mRNA Level TSG-8 (MCAF)", "setting": "TSG-8 (MCAF) mRNA", "value": "+"}]}]}
